From US20170224819A1, “Therapeutic Combinations of a BTK Inhibitor, a PI3K Inhibitor, a JAK-2 Inhibitor, and/or a CDK 4/6 Inhibitor” (Acerta Pharma B.V., priority 2014, published 2017) come the findings set out here.

Entries after “also recorded” stand apart in the source; their conditions may differ.

Data set [1] relates to human platelet-mediated thrombosis. Briefly: In vivo human thrombus formation in the VWF HA1 mice model (laser-induced injury). Conditions: pretreated human platelets. The procedure: Constitutive or aberrant activation of the BCR signaling cascade has been implicated in the propagation and maintenance of a variety of B cell malignancies. […] J. Haematol. […] In fact, both Tec and BTK play an important role in the regulation of phospholipase Cγ2 (PLCγ2) downstream of the collagen receptor glycoprotein VI (GPVI) in human platelets. […] Biotechnol.
Injury to the vessel wall of arterioles ([…] diameter) was performed using a pulsed nitrogen dye laser (440 nm, Photonic Instruments) applied through a 20× water-immersion Olympus objective (LUMPlanFl, 0.5 numerical aperature (NA)) of a Zeiss Axiotech vario microscope. […] The extent of thrombus formation was assessed for 2 minutes after injury and the area (μm^2) of coverage determined (Image IQ, Andor Technology).
The BTK inhibitor-treated human platelets were fluorescently labeled and infused continuously through a catheter inserted into the femoral artery.

The test system of data set [2] is B cell receptor signals (CD69). Description: Whole blood B cell receptor signaling, anti-IgD stimulated CD69 on CD19+ B cells. It is filed as cell-based. Conditions: whole blood of four healthy donors, 2 hours incubation, anti-human IgD 18 hours. The procedure:
Blood from four healthy donors was incubated for 2 hours with the compounds shown over a concentration range, and then stimulated with anti-human IgD [10 μg/mL] for 18 hours. The mean fluorescent intensity (MFI) of CD69 (and CD86, data not shown) on gated CD19+ B cells was measured by flow cytometry.

The next data set deals with Raji cells. Description: Antibody-dependent NK cell-mediated cytotoxicity, chromium release assay. In kind it is cell-based. The settings on record: 1 μM; chromium-labeled Raji cells, 4 hours, variable rituximab concentrations, effector:target ratio 25:1; FIG. 134.
Data set [3] has as its system GPVI platelet aggregation. Description: GPVI (convulxin-induced) platelet aggregation. In kind it is cell-based. Conditions: human platelets. As to the method: GPVI platelet aggregation was measured for Formula (XVIII) and Formula XX-A (ibrutinib). Blood was obtained from untreated humans, and platelets were purified from […] by centrifugation. Cells were resuspended to a final concentration of 350,000/μL in buffer containing 145 mmol/L NaCl, 10 mmol/L HEPES, 0.5 mmol/L Na2HPO4, 5 mmol/L KCl, 2 mmol/L MgCl2, 1 mmol/L CaCl2, and 0.1% glucose, at pH 7.4. Stock solutions of […] were prepared on the day of experimentation and added to platelet suspensions 5 minutes (37° C., 1200 rpm) before the induction of aggregation. Aggregation was assessed with a Chronolog Lumi-Aggregometer (model 540 VS; Chronolog, Havertown, Pa.) and permitted to proceed for 6 minutes after the addition of agonist. The results are reported as maximum percent change in light transmittance from baseline with platelet buffer used as a reference.
In FIG. 126, the results of CVX-induced (250 ng/mL) human platelet aggregation results before and 15 minutes after administration of the BTK inhibitors to 6 healthy individuals are shown.

By EC50 is commonly meant the midpoint of the concentration-response curve. Low values mean higher potency in that assay, high ones lower potency in that assay.

For the compound `C=CC(=O)Nc1cccc(Nc2nc(Nc3ccc(OCCOC)cc3)ncc2F)c1` [CC-292, N-(3-((5-fluoro-2-((4-(2-methoxyethoxy)phenyl)amino)pyrimidin-4-yl)amino)phenyl)acrylamide, reference compound], the “Effect on human platelet-mediated thrombus formation” value in data set [1] is “interfere with thrombus formation; also recorded: showed an effect similar to Formula XX-A (ibrutinib)”. The same compound gave an EC50 in data set [2] of 121 nM.

Consider `C=CC(=O)N1CCC[C@@H](n2nc(-c3ccc(Oc4ccccc4)cc3)c3c(N)ncnc32)C1` [ibrutinib, reference compound], for which, in the data set with Raji cells, the “antibody-dependent NK cell-mediated cytotoxicity (percent lysis of tumor cells)” value is reported as “antagonizes”. In addition, the GPVI platelet aggregation result in data set [3] is “significantly inhibits GPVI platelet aggregation”.
